Experimental data as given in PMC6072100, “Exploring the links between peptoid antibacterial activity and toxicity” (MedChemComm, 2017).
Read-outs that look alike come from different tables or passages of the source. Square brackets hold non-standard residues; d marks the D form. Peptide text beside a SMILES is read from it. Gly(N-(CH2)6NH2) = NCCCCCCNCC(=O)O; Gly(N-2-aminoethyl) = NCCNCC(=O)O; Nspe = C[C@H](NCC(=O)O)c1ccccc1; Nphe = O=C(O)CNCc1ccccc1; Nlys = NCCCCNCC(=O)O

Legend:
Format in all cases: cell-based
[1] = tested on: Pseudomonas aeruginosa PA01 (ATCC 15692)
Experimental: (§1) Escherichia coli K-12 wild-type strain (W3110/ATCC27325, F^–, λ^–, rpoS(Am), rph-1, Inv(rrnD-rrnE)), Pseudomonas aeruginosa PA01 (ATCC 15692) Staphylococcus aureus (3R7089 strain Oxford/ATCC9144) and Staphylococcus epidermidis (laboratory strain from clinical isolate) were selected for bacteriological studies as representative Gram-negative (E. coli and P. aeruginosa) and Gram-positive (S. aureus and S. epidermidis) species. Bacterial cultures were prepared by streaking bacterial strains onto LB agar plates with an inoculation loop and incubated overnight at 37 °C. A single colony was selected and placed in 5 mL of Iso-sensitest broth (Oxoid, ThermoScientific) and incubated with shaking for 16–18 h at 37 °C to provide liquid cultures for testing.
(§2) MIC values were obtained according to the protocol described by J. M. Andrews et al.[58] and were conducted in 96-well plates (Sarstedt). Bacteria were grown from overnight cultures in Iso-sensitest broth to an A650nm of 0.07 equivalent to a 0.5 MacFarland standard (240 μM BaCl2 in 0.18 M H2SO4). This culture was diluted ten-fold with Iso-sensitest broth before use. Peptoids were initially dissolved in DMSO (5 mM) and diluted further in Iso-sensitest broth to achieve a concentration range of 4–200 μM using 2-fold serial dilutions. 50 μl of inoculum and 50 μl of peptoid solution were added to each test well (final concentration range of 2–100 μM). Experiments were performed in triplicate. A positive control for bacterial growth contained only the inoculum and Iso-sensitest broth. Other controls contained the inoculum and serial dilutions of ampicillin (from 250 μg mL^–1 to 2 μg mL^–1), serial dilutions of DMSO and the inoculum to confirm no inhibitory effect on bacterial growth, and Iso-sensitest broth alone as a sterile control. […] Quantitative data was attained from absorbance values using a Biotek Synergy H4 plate reader.
(§3) Antibacterial MIC determination
as §1, with “(W3110 / ATCC27325, F-, λ-,” for “(W3110/ATCC27325, F^–, λ^–,”, “Oxford / ATCC9144)” for “Oxford/ATCC9144)”, “°C.” for “°C. A single colony was selected and placed in 5 mL of Iso-sensitest broth (Oxoid, ThermoScientific) and incubated with shaking for 16–18 h at 37 °C to provide liquid cultures for testing.”
(§4) A single colony was selected and placed in 5 mL of Iso-sensitest broth (Oxoid, ThermoScientific) and incubated with shaking for 16-18 h at 37 °C to provide liquid […]
(§5) MIC values were obtained according to the protocol described by J. M. Andrews et al.1 and were conducted in 96-well plates (Sarstedt). Bacteria were grown from overnight cultures in Iso-sensitest broth to an A650nm of 0.07 equivalent to a 0.5 MacFarland standard (240 μM BaCl2 in 0.18 M H2SO4). This culture was diluted ten-fold with Iso-sensitest broth before use. Peptoids were initially dissolved in DMSO (5 mM) and diluted further in Iso-sensitest broth to achieve a concentration range of 4 – 200 µM using 2-fold serial dilutions. 50 μl of inoculum and 50 μl of peptoid solution were added to each test well (final concentration range of 2 – 100 µM). Experiments were performed in triplicate. A positive control for bacterial growth contained only the inoculum and Iso-sensitest broth. Other controls contained the inoculum and serial dilutions of ampicillin (from 250 µg/mL to 2 µg/mL), serial dilutions of DMSO and the inoculum to confirm no inhibitory effect on bacterial growth, and Iso-sensitest broth alone as a sterile control. […]
(§6) growth after incubation at 37 °C for 16 h with shaking. Quantitative data was attained from absorbance values using a Biotek Synergy H4 plate reader.

[2] = tested on: Escherichia coli K-12 wild-type strain (W3110/ATCC27325); settings: lowest concentration completely inhibiting growth, 37 °C, 16 h; range 2–100 μM
Experimental: as §1, §2, §3
as §1, with “(W3110 / ATCC27325, F-, λ-,” for “(W3110/ATCC27325, F^–, λ^–,”, “Oxford / ATCC9144)” for “Oxford/ATCC9144)”, “°C.” for “°C. A single colony was selected and placed in 5 mL of Iso-sensitest broth (Oxoid, ThermoScientific) and incubated with shaking for 16–18 h at 37 °C to provide liquid cultures for testing.”
as §4, §5, §6

[3] = tested on: Staphylococcus aureus (3R7089 strain Oxford/ATCC9144)
Experimental: as §1, §2, §3
as §1, with “(W3110 / ATCC27325, F-, λ-,” for “(W3110/ATCC27325, F^–, λ^–,”, “Oxford / ATCC9144)” for “Oxford/ATCC9144)”, “°C.” for “°C. A single colony was selected and placed in 5 mL of Iso-sensitest broth (Oxoid, ThermoScientific) and incubated with shaking for 16–18 h at 37 °C to provide liquid cultures for testing.”
as §4, §5, §6

[4] = tested on: Staphylococcus epidermidis (laboratory strain from clinical isolate); settings: 16 h
Experimental: as §1, §2, §3
as §1, with “(W3110 / ATCC27325, F-, λ-,” for “(W3110/ATCC27325, F^–, λ^–,”, “Oxford / ATCC9144)” for “Oxford/ATCC9144)”, “°C.” for “°C. A single colony was selected and placed in 5 mL of Iso-sensitest broth (Oxoid, ThermoScientific) and incubated with shaking for 16–18 h at 37 °C to provide liquid cultures for testing.”
as §4, §5, §6

[5] = laboratory strain from clinical isolate
[6] = lowest concentration completely inhibiting growth, 37 °C, 16 h, range 2–100 μM
[7] = lowest concentration completely inhibiting growth, 37 °C, range 2–100 μM

Compound: NCCCCCCNCC(=O)N(CC(=O)N(CC(=O)N(CCCCCCN)CC(=O)N(CC(=O)N(CC(=O)N(CCCCCCN)CC(=O)N(CC(=O)N(CC(=O)N(CCCCCCN)CC(=O)N(CC(=O)N(CC(N)=O)Cc1ccccc1)Cc1ccccc1)Cc1ccccc1)Cc1ccccc1)Cc1ccccc1)Cc1ccccc1)Cc1ccccc1)Cc1ccccc1 [Peptoid 1, (NahNpheNphe)4] (H-[Gly(N-(CH2)6NH2)][Nphe][Nphe][Gly(N-(CH2)6NH2)][Nphe][Nphe][Gly(N-(CH2)6NH2)][Nphe][Nphe][Gly(N-(CH2)6NH2)][Nphe][Nphe]-NH2)
- MIC P. aeruginosa ([1]; ATCC 15692, 16 h): >100 µM
- MIC E. coli [2]: 13 µM

Compound: NCCCCCCNCC(=O)N(CC(=O)N(CC(=O)N(CCCCCCN)CC(=O)N(CC(=O)N(CC(=O)N(CCCCCCN)CC(=O)N(CC(=O)N(CC(N)=O)Cc1ccccc1)Cc1ccccc1)Cc1ccccc1)Cc1ccccc1)Cc1ccccc1)Cc1ccccc1 [Peptoid 2, (NahNpheNphe)3] (H-[Gly(N-(CH2)6NH2)][Nphe][Nphe][Gly(N-(CH2)6NH2)][Nphe][Nphe][Gly(N-(CH2)6NH2)][Nphe][Nphe]-NH2)
- MIC P. aeruginosa ([1]; ATCC 15692, 16 h): >100 µM
- MIC E. coli [2]: 50 µM

Compound: NCCCCCCNCC(=O)N(CC(=O)N(CC(=O)N(CCCCCCN)CC(=O)N(CC(=O)N(CC(N)=O)Cc1ccccc1)Cc1ccccc1)Cc1ccccc1)Cc1ccccc1 [Peptoid 3, (NahNpheNphe)2] (H-[Gly(N-(CH2)6NH2)][Nphe][Nphe][Gly(N-(CH2)6NH2)][Nphe][Nphe]-NH2)
- MIC P. aeruginosa ([1]; ATCC 15692, 16 h): >100 µM
- MIC S. aureus ([3]; ATCC9144, 16 h): >100 µM
- MIC E. coli [2]: >100 µM
- MIC S. epidermidis [4, 5]: >100 µM

Compound: NCCCCNCC(=O)N(CC(=O)N(CC(=O)N(CCCCN)CC(=O)N(CC(=O)N(CC(=O)N(CCCCN)CC(=O)N(CC(=O)N(CC(=O)N(CCCCN)CC(=O)N(CC(=O)N(CC(N)=O)Cc1ccccc1)Cc1ccccc1)Cc1ccccc1)Cc1ccccc1)Cc1ccccc1)Cc1ccccc1)Cc1ccccc1)Cc1ccccc1 [Peptoid 4, (NLysNpheNphe)4] (H-[Nlys][Nphe][Nphe][Nlys][Nphe][Nphe][Nlys][Nphe][Nphe][Nlys][Nphe][Nphe]-NH2)
- MIC P. aeruginosa [1, 6]: 50 µM
- MIC S. aureus [3, 6]: 3 µM
- MIC E. coli [2]: 13 µM
- MIC S. epidermidis [4, 7]: 2 µM

Compound: NCCCCNCC(=O)N(CC(=O)N(CC(=O)N(CCCCN)CC(=O)N(CC(=O)N(CC(=O)N(CCCCN)CC(=O)N(CC(=O)N(CC(N)=O)Cc1ccccc1)Cc1ccccc1)Cc1ccccc1)Cc1ccccc1)Cc1ccccc1)Cc1ccccc1 [Peptoid 5, (NLysNpheNphe)3]
- MIC P. aeruginosa ([1]; ATCC 15692, 16 h): >100 µM
- MIC P. aeruginosa [1, 6]: 100 µM
- MIC S. aureus [3, 6]: 25 µM
- MIC E. coli [2]: 50 µM
- MIC S. epidermidis [4, 7]: 6 µM

Compound: NCCCCNCC(=O)N(CC(=O)N(CC(=O)N(CCCCN)CC(=O)N(CC(=O)N(CC(N)=O)Cc1ccccc1)Cc1ccccc1)Cc1ccccc1)Cc1ccccc1 [Peptoid 6, (NLysNpheNphe)2] (H-[Nlys][Nphe][Nphe][Nlys][Nphe][Nphe]-NH2)
- MIC P. aeruginosa ([1]; ATCC 15692, 16 h): >100 µM
- MIC P. aeruginosa [1, 6]: 100 µM
- MIC S. aureus ([3]; ATCC9144, 16 h): >100 µM
- MIC S. aureus [3, 6]: 100 µM
- MIC E. coli [2]: >100 µM
- MIC S. epidermidis [4, 5]: >100 µM
- MIC S. epidermidis [4, 7]: 100 µM

Compound: NCCNCC(=O)N(CC(=O)N(CC(=O)N(CCN)CC(=O)N(CC(=O)N(CC(=O)N(CCN)CC(=O)N(CC(=O)N(CC(=O)N(CCN)CC(=O)N(CC(=O)N(CC(N)=O)Cc1ccccc1)Cc1ccccc1)Cc1ccccc1)Cc1ccccc1)Cc1ccccc1)Cc1ccccc1)Cc1ccccc1)Cc1ccccc1 [Peptoid 7, (NaeNpheNphe)4] (H-[Gly(N-2-aminoethyl)][Nphe][Nphe][Gly(N-2-aminoethyl)][Nphe][Nphe][Gly(N-2-aminoethyl)][Nphe][Nphe][Gly(N-2-aminoethyl)][Nphe][Nphe]-NH2)
- MIC P. aeruginosa [1, 6]: 50 µM
- MIC S. aureus [3, 6]: 2 µM
- MIC E. coli [2]: 13 µM
- MIC S. epidermidis [4, 7]: 6 µM

Compound: NCCNCC(=O)N(CC(=O)N(CC(=O)N(CCN)CC(=O)N(CC(=O)N(CC(=O)N(CCN)CC(=O)N(CC(=O)N(CC(N)=O)Cc1ccccc1)Cc1ccccc1)Cc1ccccc1)Cc1ccccc1)Cc1ccccc1)Cc1ccccc1 [Peptoid 8, (NaeNpheNphe)3] (H-[Gly(N-2-aminoethyl)][Nphe][Nphe][Gly(N-2-aminoethyl)][Nphe][Nphe][Gly(N-2-aminoethyl)][Nphe][Nphe]-NH2)
- MIC P. aeruginosa ([1]; ATCC 15692, 16 h): >100 µM
- MIC P. aeruginosa [1, 6]: 100 µM
- MIC S. aureus [3, 6]: 13 µM
- MIC E. coli [2]: >100 µM
- MIC S. epidermidis [4, 5]: >100 µM
- MIC S. epidermidis [4, 7]: 100 µM

Compound: NCCNCC(=O)N(CC(=O)N(CC(=O)N(CCN)CC(=O)N(CC(=O)N(CC(N)=O)Cc1ccccc1)Cc1ccccc1)Cc1ccccc1)Cc1ccccc1 [Peptoid 9, (NaeNpheNphe)2] (H-[Gly(N-2-aminoethyl)][Nphe][Nphe][Gly(N-2-aminoethyl)][Nphe][Nphe]-NH2)
- MIC P. aeruginosa ([1]; ATCC 15692, 16 h): >100 µM
- MIC P. aeruginosa [1, 6]: 100 µM
- MIC S. aureus ([3]; ATCC9144, 16 h): >100 µM
- MIC S. aureus [3, 6]: 100 µM
- MIC E. coli [2]: >100 µM
- MIC S. epidermidis [4, 5]: >100 µM
- MIC S. epidermidis [4, 7]: 100 µM

Compound: C[C@@H](c1ccccc1)N(CC(N)=O)C(=O)CN(C(=O)CN(CCCCCCN)C(=O)CN(C(=O)CN(C(=O)CN(CCCCCCN)C(=O)CN(C(=O)CN(C(=O)CN(CCCCCCN)C(=O)CN(C(=O)CN(C(=O)CNCCCCCCN)[C@@H](C)c1ccccc1)[C@@H](C)c1ccccc1)[C@@H](C)c1ccccc1)[C@@H](C)c1ccccc1)[C@@H](C)c1ccccc1)[C@@H](C)c1ccccc1)[C@@H](C)c1ccccc1 [Peptoid 10, (NahNspeNspe)4] (H-[Gly(N-(CH2)6NH2)][Nspe][Nspe][Gly(N-(CH2)6NH2)][Nspe][Nspe][Gly(N-(CH2)6NH2)][Nspe][Nspe][Gly(N-(CH2)6NH2)][Nspe][Nspe]-NH2; N-terminus assumed)
- MIC P. aeruginosa [1, 6]: 50 µM
- MIC S. aureus [3, 6]: 2 µM
- MIC E. coli [2]: 25 µM
- MIC S. epidermidis [4, 7]: 2 µM

Compound: C[C@@H](c1ccccc1)N(CC(N)=O)C(=O)CN(C(=O)CN(CCCCCCN)C(=O)CN(C(=O)CN(C(=O)CN(CCCCCCN)C(=O)CN(C(=O)CN(C(=O)CNCCCCCCN)[C@@H](C)c1ccccc1)[C@@H](C)c1ccccc1)[C@@H](C)c1ccccc1)[C@@H](C)c1ccccc1)[C@@H](C)c1ccccc1 [Peptoid 11, (NahNspeNspe)3] (H-[Gly(N-(CH2)6NH2)][Nspe][Nspe][Gly(N-(CH2)6NH2)][Nspe][Nspe][Gly(N-(CH2)6NH2)][Nspe][Nspe]-NH2)
- MIC P. aeruginosa ([1]; ATCC 15692, 16 h): >100 µM
- MIC E. coli [2]: 25 µM

Compound: C[C@@H](c1ccccc1)N(CC(N)=O)C(=O)CN(C(=O)CN(CCCCCCN)C(=O)CN(C(=O)CN(C(=O)CNCCCCCCN)[C@@H](C)c1ccccc1)[C@@H](C)c1ccccc1)[C@@H](C)c1ccccc1 [Peptoid 12, (NahNspeNspe)2]
- MIC P. aeruginosa ([1]; ATCC 15692, 16 h): >100 µM
- MIC S. aureus ([3]; ATCC9144, 16 h): >100 µM
- MIC E. coli [2]: >100 µM

Compound: C[C@@H](c1ccccc1)N(CC(N)=O)C(=O)CN(C(=O)CN(CCCCN)C(=O)CN(C(=O)CN(C(=O)CN(CCCCN)C(=O)CN(C(=O)CN(C(=O)CN(CCCCN)C(=O)CN(C(=O)CN(C(=O)CNCCCCN)[C@@H](C)c1ccccc1)[C@@H](C)c1ccccc1)[C@@H](C)c1ccccc1)[C@@H](C)c1ccccc1)[C@@H](C)c1ccccc1)[C@@H](C)c1ccccc1)[C@@H](C)c1ccccc1 [Peptoid 13, (NLysNspeNspe)4] (H-[Nlys][Nspe][Nspe][Nlys][Nspe][Nspe][Nlys][Nspe][Nspe][Nlys][Nspe][Nspe]-NH2)
- MIC P. aeruginosa [1, 6]: 50 µM
- MIC S. aureus [3, 6]: 2 µM
- MIC E. coli [2]: 25 µM
- MIC S. epidermidis [4, 7]: 1 µM
